These results are taken from a melting point compilation (Tetko et al.; mined from patent text by program, amines drawn as free bases though some values may be those of a salt).

For orientation: melting point means the temperature of the solid-liquid transition.

`NC(=O)c1nn(-c2ccc(F)cc2)c2c1CCc1ccc(NC(=O)c3cc(N4CCOCC4)ncc3Cl)cc1-2` registered a melting point of 309 to 313 °C.
The figure for `Clc1ccccc1-c1nc(-c2ccccn2)no1` is 93 to 94 °C.
The figure for `COC(=O)c1ccc(C(=O)O)cc1C(=O)OC` is 168 to 169 °C; for `O=C1O[C@@H](CNC(=S)C(F)F)CN1c1ccc(N2CCCS(=O)(=O)CC2)c(F)c1` it is 128 to 130 °C.
With `COc1cccc2c1-c1c(ccn1CCNC(C)=O)CC2` the figure was 132 to 133 °C; with `COCn1nc(N2C(=O)c3ccccc3C2=O)c2cc(S(=O)(=O)C(C)C)cc(OCCc3ccccn3)c21`, 160 to 161 °C; with `COc1cc2c(Nc3ccc(Sc4nccn4C)c(Cl)c3)c(C#N)cnc2cc1/C=C/CCN(C)C`, 215 to 225 °C.
With `CCC(OCC(F)(F)F)c1ccc(Cl)c2nc3n(c12)CCCN3c1ccc(OC)nc1C` (stereo not given), the melting point lay in the range of 124 to 126 °C.
As for `COc1ccccc1-c1nc(N)ncc1-c1ccc(=O)n(C)n1`, the melting point is 225 °C.
With `NCCC(C(N)=O)c1ccc(O)cc1` (stereo not given) the figure was 168 to 170 °C; with `COC(=O)c1cccn1-c1cc2[nH]c(=O)c(=O)n(C3CCCCC3)c2cc1[N+](=O)[O-]`, 211 to 212 °C.
The figure for `CCCCCCC(C)(C)c1ccc(Br)c(OCc2ccccc2)c1` is 58 to 59 °C; for `COC(=O)c1ccc(-c2noc(C)n2)s1` it is 134 to 136 °C; for `OC1(c2ccncc2)Cc2ccccc2C2=NCCN21` (stereo not given) it is 162 to 164 °C.
With `CC(=O)N(CCCC(=NNC(N)=S)c1ccc(F)cc1)C(C)C` the figure was 155 to 157 °C.
For `CCOP(=O)(OCC)SCS(=O)C(C)(C)C` (stereo not given), the melting point was 34.5 to 36 °C.
With `O=C(O)CN(C(=O)CCCOc1ccc2c(c1)CN1CC(=O)NC1=N2)C1CCCCC1` the figure was 194 to 195 °C; with `CCCCCCCCCCCCCCCCOC(=O)c1cnccn1`, 53 to 54 °C.
The figure for `CCCCCCCCCCCCCCCCOc1ccc(C(=O)O)o1` is 118 to 119 °C.
With `COc1ccc(Nc2ncnc(NCCO)n2)cc1` the figure was 160 to 164 °C.
As to `CCc1nn2ccccc2c1N(CCF)C(=O)COC`, the melting point was 66.9 to 70.6 °C.
With `O=S(=O)(NCc1ccnc2ccccc12)c1ccc(-c2cc(Cl)ccc2Cl)cc1` the figure was 124 °C.
The figure for `CCn1ncc(NCC(O)CO)c(Cl)c1=O` (stereo not given) is 120 to 124 °C; for `COc1cc2ncnc(N3CCN(C(=O)NCc4ccco4)CC3)c2cc1OC` it is 168 to 170 °C; for `COc1ccc2oc(C(=O)CBr)cc2c1` it is 86 to 87 °C.
In the case of `CC(=O)Nc1ccc(C(=O)N2CCN(CCc3ccc(Cl)cc3)CC2)cc1`, the melting point was in the range of 147 to 149 °C.
With `CCCCn1c(=O)c2cc(C(=O)OCC)cn2c2cc(Cl)ccc21` the figure was 172 to 174 °C; with `COC1CCN(c2cc(NC(=O)OC(C)(C)C)c(N)cc2C#Cc2ccccc2)CC1`, 173 to 176 °C.
With `CNC(=S)NS(=O)(=O)c1cc(CCNC(=O)/C=C/c2cccs2)ccc1OCCOC(F)(F)F` the figure was 161 to 163 °C; with `Clc1ccc(-c2cc3nc(N4CCOCC4)c4ccccc4c3nn2)cc1`, 244 to 246 °C; with `COC(=O)c1ccc(C2c3[nH]c4ccccc4c3CCN2C(=O)C=Cc2cccc(C(=O)OC)c2)cc1` (stereo not given), 182 °C.
With `CCCN(CCC)[C@@H]1Cc2c(-c3ncco3)ccc3c2[C@H](CN3)C1` the figure was 103 to 104 °C; with `Cn1c(C(=O)O)cc(=O)c2oc3ccc(Cl)cc3c(=O)c21`, 241 to 242 °C; with `CCc1nc2c(-c3cc4c(cc3C)OCC4)ncnc2n1C(C1CC1)C1CC1`, 147 to 148 °C.
`CCCCc1oc2ccccc2c1C(=O)N(C)Cc1ccc(-c2ccc(OC(Cc3ccccc3)C(=O)O)c(Br)c2)cc1` (stereo not given): the melting point lay within 79 to 86 °C.
